Measured values reported in publication PMC7956643, “Synthesis of Novel Pyrido[1,2-c]pyrimidine Derivatives with 6-Fluoro-3-(4-piperidynyl)-1,2-benzisoxazole Moiety as Potential SSRI and 5-HT1A Receptor Ligands” (International Journal of Molecular Sciences, 2021).
Entries after “also recorded” stand apart in the source; their conditions may differ. Marks after values point to notes of the source that are not given here.

What was measured:
5-HT1A receptor = target: T1, 5-HT1A receptor (Mus musculus, UniProt Q64264); test: Body temperature in mice (induced hypothermia); assay type: in vivo, CD-1 mice
T1 construct: from tissue; host or cells: whole animal, male CD-1 mice
T1 sequence (Q64264 1-421): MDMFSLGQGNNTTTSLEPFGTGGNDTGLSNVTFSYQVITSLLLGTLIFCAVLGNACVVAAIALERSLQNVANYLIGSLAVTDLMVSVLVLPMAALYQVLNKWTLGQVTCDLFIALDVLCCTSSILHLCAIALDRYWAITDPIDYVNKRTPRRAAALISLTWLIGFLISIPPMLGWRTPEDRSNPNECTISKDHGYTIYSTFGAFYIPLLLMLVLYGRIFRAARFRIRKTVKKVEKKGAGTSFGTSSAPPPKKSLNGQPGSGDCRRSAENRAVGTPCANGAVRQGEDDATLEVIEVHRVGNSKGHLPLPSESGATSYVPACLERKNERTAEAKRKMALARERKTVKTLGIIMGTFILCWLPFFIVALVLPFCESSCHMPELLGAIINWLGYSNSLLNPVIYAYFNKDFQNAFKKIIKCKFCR
Experimental: The experiments were performed on male CD-1 mice (23–40 g). The animals were kept at room temperature (21 ± 2 °C) on a natural day-night cycle (March–October) and housed under standard laboratory conditions. They had free access to food and tap water before the experiment. Each experimental group consisted of 6–8 animals/dose. All the animals were used only once. 8-Hydroxy-2-(di-n-propylamino)tetralin hydro-bromide (8-OH-DPAT, Research Biochemical Inc.) was used as aqueous solution. […] Vehicle group was administered as 10% aqueous solution of dimethyl sulphoxide (DMSO). 8-OH-DPAT was injected subcutaneously (sc); 6a and 7g were given intraperitoneally (ip) in a volume of 10 mL/kg/mice. The obtained data were analyzed by Dunnett’s test (one drug administration) or by the Newman–Keuls test (two drugs administrations). Forced swim test: the obtained data was evaluated by one-way analysis of variance (ANOVA) followed by the Dunnett’s multiple comparisons test: p < 0.05 was considered significant.
The results were expressed as a change in body temperature (Δt) with respect to the basal body temperature, as measured at the beginning of the experiment.

CD-1 mice = test: Forced swim test in mice; assay type: in vivo; settings: administered 30 min before test
Experimental: All studies were performed according to the guidelines of the European Community Council (Directive 86/609/EEC) and were approved by the Ethical Committee of the Institute of Pharmacology (88/2016, 05/31/2016). The experiments were performed on male CD-1 mice (23–40 g). The animals were kept at room temperature (21 ± 2 °C) on a natural day-night cycle (March–October) and housed under standard laboratory conditions. They had free access to food and tap water before the experiment. Each experimental group consisted of 6–8 animals/dose. All the animals were used only once. 8-Hydroxy-2-(di-n-propylamino)tetralin hydro-bromide (8-OH-DPAT, Research Biochemical Inc.) was used as aqueous solution. Compounds 6a and 7g were suspended in a 10% aqueous solution of dimethyl sulphoxide (DMSO). Vehicle group was administered as 10% aqueous solution of dimethyl sulphoxide (DMSO). […] The obtained data were analyzed by Dunnett’s test (one drug administration) or by the Newman–Keuls test (two drugs administrations). Forced swim test: the obtained data was evaluated by one-way analysis of variance (ANOVA) followed by the Dunnett’s multiple comparisons test: p < 0.05 was considered significant.
The forced swim test (FST) was carried out according to the method of Porsolt at al.. […] After the first 2 min adaptation period, the total duration of immobility was measured during the last 4 min test. […]

Induction of hypothermia in mice (5-HT1A receptor; mice): induced hypothermia
Δt ± SEM, body temperature (5-HT1A receptor; mice, 0.6 mg/kg ip, 30 min): −1.0 ± 0.2 ^b °C
Δt ± SEM, body temperature (5-HT1A receptor; mice, 0.6 mg/kg ip, 60 min): −1.2 ± 0.1 ^b °C
Δt ± SEM, body temperature (5-HT1A receptor; mice, 0.6 mg/kg ip, 90 min): −0.9 ± 0.1 ^a °C
Δt ± SEM, body temperature (5-HT1A receptor; mice, 0.6 mg/kg ip, 120 min): −0.8 ± 0.2 ^a °C
Δt ± SEM, body temperature (5-HT1A receptor; mice, 1.25 mg/kg ip, 30 min): −1.7 ± 0.3 ^b °C
Δt ± SEM, body temperature (5-HT1A receptor; mice, 1.25 mg/kg ip, 60 min): −1.7 ± 0.3 ^b °C
Δt ± SEM, body temperature (5-HT1A receptor; mice, 1.25 mg/kg ip, 90 min): −1.6 ± 0.2 ^b °C
Δt ± SEM, body temperature (5-HT1A receptor; mice, 1.25 mg/kg ip, 120 min): −1.6 ± 0.3 ^b °C
Δt ± SEM, body temperature (5-HT1A receptor; mice, 2.5 mg/kg ip, 30 min): −1.6 ± 0.2 ^b °C
Δt ± SEM, body temperature (5-HT1A receptor; mice, 2.5 mg/kg ip, 60 min): −2.5 ± 0.3 ^b °C
Δt ± SEM, body temperature (5-HT1A receptor; mice, 2.5 mg/kg ip, 90 min): −2.4 ± 0.3 ^b °C
Δt ± SEM, body temperature (5-HT1A receptor; mice, 2.5 mg/kg ip, 120 min): −2.0 ± 0.2 ^b °C
Δt ± SEM, body temperature (5-HT1A receptor; mice, 5 mg/kg ip, 30 min): −2.0 ± 0.2 ^b °C
Δt ± SEM, body temperature (5-HT1A receptor; mice, 5 mg/kg ip, 60 min): −3.2 ± 0.5 ^b °C
Δt ± SEM, body temperature (5-HT1A receptor; mice, 5 mg/kg ip, 90 min): −3.1 ± 0.5 ^b °C
Δt ± SEM, body temperature (5-HT1A receptor; mice, 5 mg/kg ip, 120 min): −2.8 ± 0.5 ^b °C
SMILES: O=c1c(-c2ccccc2)c2ccccn2c(=O)n1CCCCN1CCC(c2noc3cc(F)ccc23)CC1 [Compound 6a, 4-Phenyl-2-{4-[4-(6-fluoro-1,2-benzoxazol-3-yl)-1-piperidyl]butyl}-pyrido[1,2-c]pyrimidine-1,3-dione]
Functional 5-HT1A receptor activity profile (5-HT1A receptor; concluded from induced hypothermia test in mice): presynaptic agonist of the 5-HT1A receptor; also recorded: presynaptic 5-HT1A agonistic activity
Effect in the forced swimming test (CD-1 mice): inactivity; also recorded: ineffective
